Values quoted from earlier work, collected in US20240285702A1, “Compositions comprising a cannabinoid and uses thereof” (Cannabotech Ltd., priority 2021, published 2024).
In brackets after ≈: the same amount, converted by molar mass.

## C=C(C)[C@@H]1CCC(C)=C[C@H]1c1c(O)cc(CCCCC)cc1O [CBD, 2-[(1R,6R)-6-isopropenyl-3-methylcyclohex-2-en-1-yl]-5-pentylbenzene-1,3-diol]
  Log P: 5.8
  water solubility: 0.7 µg/mL (≈ 2.23 µM)
